Assay type in all cases: cell-based, human
One assay relates to MM-AN cells. Nature of the assay: Apoptosis by propidium iodide FACS (sub G0/G1). How it is done:
MM-AN, MU, PM-WK, MM-RU, MM-MC, MM-LH and RPM-EP melanoma cells were grown in MEM (Cellgro, Hernon, Va.) with 10% FBS (Gemini Bioproducts, Woodland, Calif.). Triplicate melanoma cell cultures were grown in MEM with 10% FBS and treated with a final concentration of 5-10 μM of SU11274 or an equal volume of diluent (DMSO) as a control for 96 hrs. Cells were collected, stained with propidium iodide and analyzed with a Becton Dickinson FACS Scan and Cell Quest software.
SU11274, which is a highly specific inhibitor of c-Met, was tested on the six melanoma cell lines. […] By 96 hrs between 12 to 58% of cells in different melanoma cell lines appeared in the sub G0/G1 region of the FACS profile indicating apoptosis.

Assay [1] deals with SCCHN cell lines. Nature of the assay: Viability/growth by MTT and/or Cyquant. Conditions: several cell lines. From the text:
Specific inhibition of c-Met by small molecule inhibitors can also be determined. […] Both SU11274 (1st generation) and Compound X (3rd generation) were used to test for their respective inhibitory effects on SCCHN cell lines.

In assay [2] the test system is c-Met dependent signaling in MU melanoma cells. Nature of the assay: Phosphorylation of c-Met and signaling molecules via HGF, immunoblotting. As for the experimental part: (§1) MU and MC cells that expressed c-Met were deprived of growth factors by incubation in serum free medium containing 0.5% BSA for 24 hours with or without SU11274 (5 μM). After treatment with or without SU11274 in serum free medium, cells were stimulated with or without HGF (EMD Biosciences, San Diego, Calif.) at 40 ng/ml for 7.5 minutes at 37° C. After harvesting, the cells were subjected to the standard procedures of immunoblotting. Antibodies specifically against phosphorylated c-Met, and other proteins are as described above.
(§2) The ability of SU11274 to inhibit activation of c-Met was examined by immunoblotting. Treatment with HGF increased the autophosphorylation of c-MET at the activation loop site phospho-epitope [pY1230/1234/1235]. […] HGF binding to c-Met activated its' tyrosine kinase, AKT (S-473) and S-6 kinase (T-421/S424).
For orientation: A western blot detects proteins with antibodies after separation by electrophoresis.

Assay [3] concerns c-Met dependent signaling in MM-MC melanoma cells. The description is as above. Conditions: MM-MC (c-Met mutation). How it is done: as §1, §2
Assay [4] concerns SCCHN cell lines. Put plainly: Cell motility and migration. The text has this:
c-Met is known to have a significant role in cell scattering and possibly metastatic spread (Ren et al., Clin Cancer Res, 11, (17), 6190-7 (2005) and Endo, et al., Hum Pathol, 37, (8), 1111-6 (2006)). Here, the effects of c-Met suppression on cell motility and migration as a surrogate marker for metastatic spread was investigated. […] The degree of downstream modulation varied by cell line.

SMILES strings stand for the structures.

Turning to `Cc1[nH]c(/C=C2\C(=O)Nc3ccc(S(=O)(=O)N(C)c4cccc(Cl)c4)cc32)c(C)c1C(=O)N1CCN(C)CC1` [SU11274, (3Z)-N-(3-chlorophenyl)-3-({3,5-dimethyl-4-[(4-methylpiperazin-1-yl)carbonyl]-1H-pyrrol-2-yl}methylene)-N-methyl-2-oxo-2,3-dihydro-1H-indole-5-sulfonamide], the apoptosis entry in the assay with MM-AN cells was “No apoptosis could be detected”. Besides, the viability/growth entry with SCCHN cell lines [1] is “markedly decreased”. For the same molecule, the BCLXL level entry in assay [2] is recorded as “downregulated”. For the same molecule, the “HGF induced phosphorylation of c-Met, AKT and S6 kinase” value in assay [2] (5 μM) was “completely inhibited”. Also, the “autophosphorylation of c-MET at activation loop site [pY1230/1234/1235]” value in assay [2] (HGF stimulated) is reported as “completely abolished”. Also, the “phosphorylation of c-Met and AKT” value in assay [2] (MU (no c-Met mutation)) and in assay [3] was “inhibited” each time. The cell motility result with SCCHN cell lines [4] is given as “marked decrease”.

Values taken from US20100062441A1, “C-MET MUTATIONS AND USES THEREOF” (priority 2007, published 2010).
